Patent publication US20240124524A1, “Agonist of Tacr2” (University of Copenhagen, priority 2019, published 2024)
Like-named read-outs stand apart in the source and are kept apart here.

How the values were obtained:
[1] = biological target: T1, Tacr2 (Homo sapiens, UniProt P21452); conditions: Sp Hs; cited from earlier work
T1 sequence (P21452 1-398): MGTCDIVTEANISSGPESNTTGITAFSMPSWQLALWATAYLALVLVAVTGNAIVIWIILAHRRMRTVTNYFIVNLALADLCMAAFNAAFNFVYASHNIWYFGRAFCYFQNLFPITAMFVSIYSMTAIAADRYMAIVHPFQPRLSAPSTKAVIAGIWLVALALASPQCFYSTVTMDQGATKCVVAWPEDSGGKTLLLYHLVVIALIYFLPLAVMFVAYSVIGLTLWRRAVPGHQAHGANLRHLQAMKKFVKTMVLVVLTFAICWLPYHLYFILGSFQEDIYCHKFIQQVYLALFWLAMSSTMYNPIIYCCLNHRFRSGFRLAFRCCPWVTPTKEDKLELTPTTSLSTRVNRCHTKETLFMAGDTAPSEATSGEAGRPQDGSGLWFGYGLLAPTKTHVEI

[2] = tested on: Tacr2; conditions: Sp Cp; cited from earlier work
[3] = biological target: T2, mouse Tacr2 (Mus musculus, UniProt P30549); assay: IP3 assay in primary brown adipocytes transfected with Tacr2; type: cell-based; conditions: 24 hours NKA treatment; Tacr2 over-expressing primary brown adipocytes; FIG. 3a
T2 construct: host or cells: primary brown adipocytes
T2 sequence (P30549 1-384): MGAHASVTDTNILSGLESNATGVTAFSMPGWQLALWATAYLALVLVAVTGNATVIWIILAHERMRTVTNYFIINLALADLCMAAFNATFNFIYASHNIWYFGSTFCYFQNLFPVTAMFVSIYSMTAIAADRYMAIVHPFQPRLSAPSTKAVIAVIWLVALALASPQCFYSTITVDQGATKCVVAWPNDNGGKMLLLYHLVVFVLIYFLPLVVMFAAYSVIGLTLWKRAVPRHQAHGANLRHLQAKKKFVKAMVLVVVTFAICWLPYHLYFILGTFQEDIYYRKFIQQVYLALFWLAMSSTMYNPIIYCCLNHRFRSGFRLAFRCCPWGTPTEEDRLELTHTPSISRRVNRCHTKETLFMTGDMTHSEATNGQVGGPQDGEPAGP
Protocol: Primary brown pre-adipocytes were isolated from intrascapular brown fat pads by collagenase type 1 (Worthington, NJ, USA) digestion on horizontal shaking water bath at 37° C. for 50 minutes with vortexing every 10 minutes. Collagenase was diluted in KRB with free fatty acid free BSA (Sigma-Aldrich, Denmark) in a ratio of 1:10. The enzymatic reaction was stopped by addition of growth media, and cell suspension was pelleted, resuspended in growth media before straining through a 40 μm nylon mesh (VWR, Denmark) to avoid tissue clumps. Pre-adipocytes were expanded in DMEM (Gibco, Denmark) supplemented with 10% fetal bovine serum (Invitrogen, Denmark) and 1% penicillin and streptomycin (Lonza, Denmark) until confluency. […]
Primary brown adipocytes were loaded with 5 μCi myo-[3H]inositol (Perkin Elmer, Denmark) in full maintenance media at the day after electroporation, and incubated overnight. […] After treatment, cells were extracted with 10 mM formic acid and cell membranes were captured using poly-L-lysine coated SPA beads (Perkin Elmer, Denmark), and analyzed on Top Counter (Perkin Elmer, Denmark).
(§1) Oxygen consumption was measured using the Seahorse XF-96 Flux Analyzer (Seahorse Bioscience, Denmark). […] All readings were performed over a two minutes period and mixing was performed for three minutes. […]

[4] = biological target: T3, mTacr2 (Mus musculus, UniProt P30549); assay: IP3 assay in transfected HEK293 cells; type: cell-based
T3 construct: host or cells: HEK293
T3 sequence (P30549 1-384): T2 sequence (P30549 1-384)
Protocol: (§2) HEK293 cells were transiently transfected with plasmid (pcDNA3.1, Genscript, NJ, USA) encoding human or mouse Tacr1-3 using Lipofectamine 2000 (Thermo Fisher, Denmark). After six hours of transfection, cells were loaded with 5 μCi myo-[3H]inositol (Perkin Elmer, Denmark) in full maintenance and cultured overnight. […] After treatment, cells were extracted with 10 mM formic acid and cell membranes were captured using poly-L-lysine coated SPA beads (Perkin Elmer, Denmark), and analyzed on Top Counter (Perkin Elmer, Denmark).
(§3) Data was analyzed using GraphPad Prism 7 (GraphPad, CA, USA),using 4 parametric logistic curve fitting. The data analysis included calculation of the top value, the bottom value, the hill slope as well as the log EC50.

[5] = tested on: primary brown adipocytes; assay: Oxygen consumption rate, Seahorse XF-96 Flux Analyzer; type: cell-based; conditions: 72 hours NKA treatment; primary brown adipocytes not transfected with Tacr2; FIG. 3b
Protocol: Primary brown pre-adipocytes were isolated from intrascapular brown fat pads by collagenase type 1 (Worthington, NJ, USA) digestion on horizontal shaking water bath at 37° C. for 50 minutes with vortexing every 10 minutes. Collagenase was diluted in KRB with free fatty acid free BSA (Sigma-Aldrich, Denmark) in a ratio of 1:10. The enzymatic reaction was stopped by addition of growth media, and cell suspension was pelleted, resuspended in growth media before straining through a 40 μm nylon mesh (VWR, Denmark) to avoid tissue clumps. Pre-adipocytes were expanded in DMEM (Gibco, Denmark) supplemented with 10% fetal bovine serum (Invitrogen, Denmark) and 1% penicillin and streptomycin (Lonza, Denmark) until confluency. The day after reach of confluency, primary brown pre-adipocytes were differentiated using a cocktail consisting of insulin (0.5 mg/mL), rosiglitazone (1 mM), dexamethasone (100 μM), IBMX (50 mM) and T3 (1 μM) for two days, thereafter cells were maintained in growth media containing insulin and T3 throughout the experimental period. Maintenance media was changed every second day. Cells were grown at 37° C. with 10% CO2.
as §1

[6] = tested on: diet induced obese (DIO) mice; assay: Insulin tolerance test after Neurokinin A treatment; type: in vivo, mice (male C57Bl/6); conditions: vs control mice
Protocol: (§4) Oxygen consumption was measured every 5 minutes using the PhenoMaster. Data is representative of all days and show means±SEM of n=6. (b) Weight was measured every day throughout the experimental period. […] (c) Insulin tolerance test was performed in 3h fasted mice the day after treatment, and mice received 1 UI per kg lean body mass insulin intraperitoneal. […] (d) The three major adipose tissues were harvested weighed upon termination of experiment.
Mice were fasted for 3 hours prior to intra peritoneal insulin tolerance test (IPITT). Insulin (Actrapid, Novo Nordisk, DK) was dosed at 1 IU per kg lean body mass measured prior to treatment. Blood glucose was determined using glucometer from Roche. Lower blood glucose levels indicate greater insulin sensitivity.

[7] = tested on: diet induced obese (DIO) mice; assay: Neurokinin A treatment of diet induced obese mice; type: in vivo, mice (male C57Bl/6)
Protocol: as §4
All animal experiments were performed according to Danish animal legislation, with ad libitum access to food and water and 12 hour light-dark cycle. Male C57Bl/6 mice were purchased from Janvier (Denmark) at four weeks of age and acclimatized for one week prior to experimentation. For high fat diet studies, male C57Bl/6 mice were housed at room temperature and fed a 60% high fat diet (Research diets, D12492, Denmark) for 18 weeks. After being fed this diet, the mice were highly obese, typically having a body weight in the range of 42 to 45 g. These mice may also be referred to as diet induced obese (DIO) mice. Mice were randomized according to their weight and body composition measured by MRI scan (EchoMRI, TX, USA) before single-housing for at least one week prior treatment. Oxygen consumption and […] (RER) were measured using PhenoMaster (TSE-Systems, Germany). Food consumption was manually assessed every second day.
For treatment, NKA was diluted in Gelofusine® (B. Braun, DK) prior to subcutaneous injection. Mice were treated twice daily for 9 days.

[8] = biological target: T3, mTacr2; assay: IP3 assay with 0.2% or 2% BSA (BSA binding); type: cell-based; conditions: for EC50: printed as log EC50 with negative sign
Protocol: as §2, §3

[9] = biological target: T4, Tacr2 (Rattus norvegicus, UniProt P16610); conditions: Sp Rn; cited from earlier work
T4 sequence (P16610 1-390): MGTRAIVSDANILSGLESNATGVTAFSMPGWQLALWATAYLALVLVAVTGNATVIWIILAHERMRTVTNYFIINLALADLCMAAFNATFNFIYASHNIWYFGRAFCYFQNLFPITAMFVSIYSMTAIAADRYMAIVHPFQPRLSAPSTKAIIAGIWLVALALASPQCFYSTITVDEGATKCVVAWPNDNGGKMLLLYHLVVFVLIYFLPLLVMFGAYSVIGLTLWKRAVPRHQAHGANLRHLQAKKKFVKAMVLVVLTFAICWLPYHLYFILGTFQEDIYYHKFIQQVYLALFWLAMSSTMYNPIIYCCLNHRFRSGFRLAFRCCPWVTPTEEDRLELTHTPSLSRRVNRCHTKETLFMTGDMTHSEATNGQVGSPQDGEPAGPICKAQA

[10] = biological target: T4, Tacr2; conditions: Sp Rn; cited from earlier work; remark: listed apart in the source
[11] = tested on: human brown adipose; conditions: cited from earlier work

## CSCC[C@H](NC(=O)[C@H](CC(C)C)NC(=O)CNC(=O)[C@@H](NC(=O)[C@H](Cc1ccccc1)NC(=O)[C@H](Cc1ccccc1)NC(=O)[C@H](CC(=O)O)NC(=O)[C@H](Cc1c[nH]cn1)NC(=O)[C@H](CCSC)NC(=O)[C@@H](N)CC(=O)O)C(C)C)C(N)=O [NKB, neurokinin B]
[1]
  Affinity: 5.0-7.7 pKi

## hemokinin 1 (RSRTRQFYGLM; Hemokinin; UniProt Q99N14 56-66, looked up) [mammalian tachykinin (Mouse)]
[1]
  Affinity: 6.3 pKi

## [βAla8]neurokinin A-(4-10)
[1]
  Affinity: 6.0 pKd

## neuropeptide γ
[2]
  Affinity: 9.5 pEC50

## CSCC[C@H](NC(=O)[C@H](CC(C)C)NC(=O)CNC(=O)[C@@H](NC(=O)[C@H](Cc1ccccc1)NC(=O)[C@H](CO)NC(=O)[C@H](CC(=O)O)NC(=O)[C@@H](NC(=O)[C@H](CCCCN)NC(=O)[C@@H](N)Cc1cnc[nH]1)[C@@H](C)O)C(C)C)C(N)=O [NKA, Neurokinin A]
[3]
  IP3 levels: increases IP3 levels
[4]
  EC50: 8.09 nM
[5]
  oxygen consumption rate (OCR): increases oxygen consumption rate (OCR)
[6]; 3 h fasted, 1 IU insulin per kg lean body mass i.p., day after treatment, FIG. 4c
  blood glucose level after insulin treatment (ITT): significant lower blood glucose level after insulin treatment
[6]
  insulin sensitivity (ITT): higher insulin sensitivity
  return of blood glucose to basal levels after Cmin (ITT): return to basal levels at a slower rate
[7]; 1 mg/kg NKA s.c. twice daily for 9 days
  metabolic parameters: improved metabolic parameters
[7]; 1 mg/kg NKA s.c. twice daily for 9 days, FIG. 4a
  calorie burning (oxygen consumption): increased calorie burning
[7]; 1 mg/kg NKA s.c. twice daily for 9 days, FIG. 4b
  body weight: significant reduction in body weight
[7]; 9 consecutive days of treatment, FIG. 4a
  desensitization to NKA: not accompanied by desensitization to NKA
[7]; tissues harvested upon termination, FIG. 4d
  adipose tissue weight: reduction of white adipose tissue and not brown fat
[8]; LogEC50, mTacr2, 0.2% BSA
  EC50: 3.54 nM
[8]; LogEC50, mTacr2, 2% BSA
  EC50: 12.3 nM
[8]; from Tacr2 activation at 0.2% vs 2% BSA
  BSA binding affinity: low BSA binding affinity
[8]; mTacr2, 0.2% BSA
  Hill-Slope: 1.082
  Top: 1788
[8]; mTacr2, 2% BSA
  Bottom: 111.3
  Hill-Slope: 0.8378
  Top: 1719

## Neurokinin A (3-10) [GR64349, Neurokinin A (3-10) [Lys3, Gly8-(R)-γ-Lactam-Leu9]]
[9]
  Affinity: 8.4 pEC50

## [Lys5,Me-Leu9, Nle10]NKA-(4-10) [[Lys5,Me-Leu9,Nle10]NKA-(4-10), DKFVGXJ, X = Me-Leu; J = Nle]
[10]
  Affinity: 8.8-9.4 pIC50

## neuropeptide K (DADSSIEKQVALLKALYGHGQISHKRHKTDSFVGLM; Neuropeptide K; UniProt P20366 72-107, looked up) [natural agonist of Tacr2 (Human, Rat)]
[2]
  Affinity: 8.8 pEC50

## Nc1nc(CC(=O)Nc2ccc(CCNC[C@H](O)c3ccccc3)cc2)cs1 [Mirabegron]
[11]; proof-of-concept studies
  activation of human brown adipose: activate human brown adipose
[11]; side effects
  blood pressure and heart rate: elevated blood pressure and heart rate
